Assay results from ChEMBL document CHEMBL3046474, “Development of robust QSAR model using rapid overlay of crystal structures (ROCS) based alignment: a test case of Tubulin inhibitors” (Med Chem Res, 2013).

Target: Tubulin
Test: Inhibition of tubulin polymerization in Homo sapiens (human) solid tumor cells

| SMILES | pIC50 |
| --- | --- |
| COc1ncc(/C=C\c2cc(OC)c(OC)c(OC)c2)cn1 | 5.52 |
| COc1cc(/C=C\c2ccc(Br)cc2)cc(OC)c1OC | 5.51 |
| COc1cc(/C=C\c2ccccc2)cc(OC)c1OC | 4.44 |
| COc1cc(/C=C\c2cccc(SC)c2)cc(OC)c1OC | 5.21 |
| COc1ccc(COc2cc(OC)c(OC)c(OC)c2)cc1O | 5.46 |
| COc1ccc(/C=C\c2cc(OC)c(OC)c(OC)c2)nc1 | 5.52 |
| COc1cc(/C=C\c2ccc(C)c(N=[N+]=[N-])c2)cc(OC)c1OC | 5.92 |
| COc1ccc(\C=C/C=C/C=C/c2cc(OC)c(OC)c(OC)c2)cc1O | 5 |
| COc1ccc(/C(C#N)=C\c2cc(OC)c(OC)c(OC)c2)cc1N | 5.3 |
| COc1cccc(/C=C\c2cc(OC)c(OC)c(OC)c2)c1 | 5.06 |
| COc1ccc(CCc2cc(OC)c(OC)c(OC)c2)cc1O | 5.48 |
| COc1cc2ccc3cc(O)c(C)cc3c2c(OC)c1OC | 4 |
| COc1ccc(/C=C(/C#N)c2cc(OC)c(OC)c(OC)c2)cc1O | 5.3 |
| COc1ccc(/C=C(/C=O)c2cc(OC)c(OC)c(OC)c2)cc1 | 5.4 |
| COc1ccc(NCc2cc(OC)c(OC)c(OC)c2)cc1O.Cl | 5.05 |
| COc1ccc(Cc2cc(OC)c(OC)c(OC)c2)cc1O | 5.11 |
| COc1ccc(C(O)C(O)c2cc(OC)c(OC)c(OC)c2)cc1O (centres undefined) | 4.66 |

| SMILES | pIC50 |
| --- | --- |
| COc1cc(/C=C\c2ccc(N(C)C)cc2)cc(OC)c1OC | 5.47 |
| COc1cc(CNc2ccc(C)c(O)c2)cc(OC)c1OC.Cl | 5.46 |
| COc1ccc(OCc2cc(OC)c(OC)c(OC)c2)cc1O | 4.65 |
| COc1cnc(/C=C\c2cc(OC)c(OC)c(OC)c2)cn1 | 5.05 |
| COc1ccc(/C=C\c2cc(OC)c(OC)c(OC)c2)cn1 | 5.7 |
| COc1ccc(CCCCc2cc(OC)c(OC)c(OC)c2)cc1O | 4.26 |
| COc1cc(/C=C\c2ccc(C)cc2)cc(OC)c1OC | 5.7 |
| COc1cc(/C=C\c2ccc(OC(C)=O)cc2)cc(OC)c1OC | 4.54 |
| COc1cc(/C=C\c2ccc(Cl)c(N)c2)cc(OC)c1OC | 5.52 |
| CCCOc1ccc(/C=C\c2cc(OC)c(OC)c(OC)c2)cc1 | 5.22 |
| COc1ccc(/C=C(/C#N)c2cc(OC)c(OC)c(OC)c2)cc1 | 5.22 |
| COc1cc(/C=C\c2ccc(C)c(N)c2)cc(OC)c1OC | 5.4 |
| COc1ccc(NCc2cc(OC)c(OC)c(OC)c2)cc1 | 4.64 |
| COc1ccc(/C=C(/C#N)c2cc(OC)c(OC)c(OC)c2)cc1N | 5 |
| COc1ccc(/C=C(/C(N)=O)c2cc(OC)c(OC)c(OC)c2)cc1N | 5.52 |
| COc1ccc(Oc2cc(OC)c(OC)c(OC)c2)cc1O | 4.79 |
| COc1cc(/C=C\c2ccn(C)c(=O)c2)cc(OC)c1OC | 5.7 |
